These results are taken from PubChem BioAssay AID330 (DTP/NCI, 2004).

The subject of the assay is P388 leukemia ip, CD2F1 mice, survival T/C. The assay is described as follows: NCI In Vivo Anticancer Drug Screen. Data for tumor model P388 Leukemia (intraperitoneal) in CD2F1 (CDF1) mice. The conditions noted are these: endpoint: median survival time, higher = longer survival. The procedure, abridged: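 Mice carrying the transplanted tumor received test compound or vehicle. Survival was recorded in each group, and the value is the treated-group measurement divided by that of the vehicle-treated control group.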

Where [1] appears, read: dose: 25.0 mg/kg/injection, schedule: Q01DX009 (ip), vehicle: saline with Tween-80.
[2] abbreviates: dose: 50.0 mg/kg/injection, schedule: Q01DX009 (ip), vehicle: saline with Tween-80.
[3] abbreviates: dose: 100.0 mg/kg/injection, schedule: Q01DX009 (ip), vehicle: saline with Tween-80.
Setting [4] is: dose: 200.0 mg/kg/injection, schedule: Q01DX009 (ip), vehicle: saline with Tween-80.
Where [5] appears, read: dose: 50.0 mg/kg/injection, schedule: Q01DX009 (ip), vehicle: saline.
The mark [6] stands for this setting: dose: 6.25 mg/kg/injection, schedule: Q01DX009 (ip), vehicle: saline.
[7] abbreviates: dose: 60.0 mg/kg/injection, schedule: Q01DX005 (ip), vehicle: saline with Tween-80.
The mark [8] stands for this setting: dose: 120.0 mg/kg/injection, schedule: Q01DX005 (ip), vehicle: saline with Tween-80.
Where [9] appears, read: dose: 240.0 mg/kg/injection, schedule: Q01DX005 (ip), vehicle: saline with Tween-80.
[10] abbreviates: dose: 50.0 mg/kg/injection, schedule: Q01DX005 (ip), vehicle: Klucel (hydroxypropylcellulose) (HPC).
The mark [11] stands for this setting: dose: 100.0 mg/kg/injection, schedule: Q01DX005 (ip), vehicle: Klucel (hydroxypropylcellulose) (HPC).
[12] abbreviates: dose: 200.0 mg/kg/injection, schedule: Q01DX005 (ip), vehicle: Klucel (hydroxypropylcellulose) (HPC).
Where [13] appears, read: dose: 12.5 mg/kg/injection, schedule: Q01DX009 (ip), vehicle: Klucel (hydroxypropylcellulose) (HPC).
Where [14] appears, read: dose: 25.0 mg/kg/injection, schedule: Q01DX009 (ip), vehicle: Klucel (hydroxypropylcellulose) (HPC).
Where [15] appears, read: dose: 50.0 mg/kg/injection, schedule: Q01DX005 (ip), vehicle: saline with Tween-80.
[16] abbreviates: dose: 100.0 mg/kg/injection, schedule: Q01DX005 (ip), vehicle: saline with Tween-80.
The mark [17] stands for this setting: dose: 200.0 mg/kg/injection, schedule: Q01DX005 (ip), vehicle: saline with Tween-80.

“And” between values parts separate entries of the source, which are not always exact repeats. Identical values can stand only once. Toxic doses and inconclusive results are not listed.

Regarding `OCC1OC(n2cnc3cc(Cl)c(Cl)cc32)C(O)C1O` (configuration not stated), the T/C is 96 % of control (dose: 8.0 mg/kg/injection, schedule: Q03HX024 (ip), vehicle: saline with Tween-80); 99 % of control (dose: 16.0 mg/kg/injection, schedule: Q03HX024 (ip), vehicle: saline with Tween-80); 95 % of control (dose: 20.0 mg/kg/injection, schedule: Q04DX003 (ip), vehicle: other); 103 % of control (dose: 20.0 mg/kg/injection, schedule: Q04DX003 (oral), vehicle: other); 93 % of control under setting [1]; 114 % of control and 116 % of control (dose: 32.0 mg/kg/injection, schedule: Q03HX024 (ip), vehicle: saline with Tween-80). Besides, the T/C is, setting by setting: (dose: 40.0 mg/kg/injection, schedule: Q04DX003 (ip), vehicle: other) 100 % of control; (dose: 40.0 mg/kg/injection, schedule: Q04DX003 (oral), vehicle: other) 100 % of control; under setting [2], 106 % of control; (dose: 80.0 mg/kg/injection, schedule: Q04DX003 (ip), vehicle: other) 95 % of control; (dose: 80.0 mg/kg/injection, schedule: Q04DX003 (oral), vehicle: other) 103 % of control; under setting [3], 123 % of control. The T/C (dose: 160.0 mg/kg/injection, schedule: Q04DX003 (ip), vehicle: other) is 110 % of control; the T/C (dose: 160.0 mg/kg/injection, schedule: Q04DX003 (oral), vehicle: other) is 100 % of control; the T/C under setting [4] was 160 % of control; the T/C (dose: 320.0 mg/kg/injection, schedule: Q04DX003 (ip), vehicle: other) was 119 % of control; the T/C (dose: 320.0 mg/kg/injection, schedule: Q04DX003 (oral), vehicle: other) is 107 % of control; the T/C (dose: 640.0 mg/kg/injection, schedule: Q04DX003 (oral), vehicle: other) is 100 % of control.

Consider `COc1cc(/C=C2\CCC/C(=C\c3ccc(OCC4CO4)c(OC)c3)C2=O)ccc1OCC1CO1` (configuration not stated), for which the T/C was 101 % of control under setting [2], 95 % of control under setting [3] and 94 % of control under setting [4].

Consider `OCC1OC(n2ccn(C3OC(CO)C(O)C3O)c2=S)C(O)C1O` (configuration not stated), for which the T/C was 103 % of control (dose: 25.0 mg/kg/injection, schedule: Q04DX003 (ip), vehicle: water); 111 % of control (dose: 50.0 mg/kg/injection, schedule: Q04DX003 (ip), vehicle: water); 111 % of control (dose: 100.0 mg/kg/injection, schedule: Q04DX003 (ip), vehicle: water); 112 % of control (dose: 200.0 mg/kg/injection, schedule: Q04DX003 (ip), vehicle: water); 111 % of control (dose: 400.0 mg/kg/injection, schedule: Q04DX003 (ip), vehicle: water).

With `CCOC(=O)/C=C(\C)NC(C)=NC(C)(C)C`, the T/C runs as follows: under setting [5], 93 % of control; (dose: 100.0 mg/kg/injection, schedule: Q01DX009 (ip), vehicle: saline) 89 % of control.

For the compound `CN1C=[N+](C)Cc2nnn(Cc3ccccc3)c21`, the T/C is 105 % of control (dose: 1.56 mg/kg/injection, schedule: Q01DX009 (ip), vehicle: saline); 105 % of control (dose: 3.12 mg/kg/injection, schedule: Q01DX009 (ip), vehicle: saline); 100 % of control under setting [6].

Turning to `COc1cc(C(c2cc3c(cc2OC(C)=O)OCO3)C(C(C)=O)C(C)=O)cc(OC)c1OC` (configuration not stated), the T/C is 106 % of control under setting [7], 98 % of control under setting [8] and 121 % of control under setting [9].

With `COc1ccc(CC(O)c2cc(OC)c(OC)c(OC)c2)cc1O` (configuration not stated), the T/C by setting is: (dose: 2.5 mg/kg/injection, schedule: Q01DX009 (ip), vehicle: saline + alcohol) 108 % of control; (dose: 5.0 mg/kg/injection, schedule: Q01DX009 (ip), vehicle: saline + alcohol) 118 % of control; (dose: 10.0 mg/kg/injection, schedule: Q01DX009 (ip), vehicle: saline + alcohol) 114 % of control; (dose: 20.0 mg/kg/injection, schedule: Q01DX009 (ip), vehicle: saline + alcohol) 101 % of control; (dose: 22.5 mg/kg/injection, schedule: Q01DX009 (ip), vehicle: saline + Tween-80 + alcohol) 108 % of control; (dose: 45.0 mg/kg/injection, schedule: Q01DX009 (ip), vehicle: saline + Tween-80 + alcohol) 114 % of control. The T/C reads like this: (dose: 90.0 mg/kg/injection, schedule: Q01DX009 (ip), vehicle: saline + Tween-80 + alcohol) 107 % of control; (dose: 180.0 mg/kg/injection, schedule: Q01DX009 (ip), vehicle: saline + Tween-80 + alcohol) 123 % of control.

For `CCCCCCCCCCCCCCCCCC[N+](C)(C)C` (tested in a mixture with another compound), the T/C (dose: 1.5 mg/kg/injection, schedule: Q01DX009 (ip), vehicle: saline with Tween-80) was 90 % of control; the T/C (dose: 3.0 mg/kg/injection, schedule: Q01DX009 (ip), vehicle: saline with Tween-80) is 113 % of control; the T/C under setting [6] was 109 % of control; the T/C (dose: 12.5 mg/kg/injection, schedule: Q01DX009 (ip), vehicle: saline) is 113 % of control.

As for `Nc1nc2ncn(COC(CO)CO)c2c(=O)[nH]1`, the T/C under setting [7] is 100 % of control, the T/C under setting [8] was 98 % of control and the T/C under setting [9] was 100 % of control.

Regarding `CC1(C)C(=O)/C(=C/c2ccccc2N)Cc2ccccc21`, the T/C was 90 % of control under setting [10], 107 % of control under setting [11] and 102 % of control under setting [12].

For the compound `O=C(C[n+]1ccc2ccccc2c1)c1ccc(-c2ccccc2)cc1`, the T/C reads like this: under setting [13], 118 % of control; under setting [14], 98 % of control and 116 % of control; (dose: 50.0 mg/kg/injection, schedule: Q01DX009 (ip), vehicle: Klucel (hydroxypropylcellulose) (HPC)) 101 % of control and 115 % of control; (dose: 100.0 mg/kg/injection, schedule: Q01DX009 (ip), vehicle: Klucel (hydroxypropylcellulose) (HPC)) 101 % of control and 122 % of control.

For `C=C1C(=O)OC2/C=C(\C)CC/C=C(/C=O)C(OC)C(OC(=O)C(C)C)C12` (configuration not stated), the T/C by setting is: (dose: 6.25 mg/kg/injection, schedule: Q01DX009 (ip), vehicle: Klucel (hydroxypropylcellulose) (HPC)) 106 % of control; under setting [13], 97 % of control; under setting [14], 100 % of control.

Consider `O=C(O)c1c[nH]c2cc([N+](=O)[O-])ccc2c1=O`, for which the T/C was 94 % of control (dose: 12.5 mg/kg/injection, schedule: Q01DX009 (ip), vehicle: saline with Tween-80); 88 % of control under setting [1]; 87 % of control under setting [2]; 104 % of control under setting [5].

As for `[Br][Sn]([Br])([CH2][Sn]([Br])([Br])[c]1ccccc1)[c]1ccccc1`, the T/C runs as follows: under setting [10], 97 % of control; under setting [11], 99 % of control; under setting [12], 89 % of control.

As to `COC(=O)Nc1nc2ccc(-c3c(C)oc(C)c3C(=O)O)cc2[nH]1`, the T/C by setting is: under setting [15], 97 % of control; under setting [16], 97 % of control; under setting [17], 87 % of control.

Regarding `Cc1cc2c(cc1C)C(=O)C(N1CCOCC1)CCO2` (configuration not stated), the T/C is, setting by setting: (dose: 100.0 mg/kg/injection, schedule: Q04DX003 (ip), vehicle: saline with Tween-80) 99 % of control; (dose: 200.0 mg/kg/injection, schedule: Q04DX003 (ip), vehicle: saline with Tween-80) 99 % of control; (dose: 400.0 mg/kg/injection, schedule: Q04DX003 (ip), vehicle: saline with Tween-80) 96 % of control.

As to `CC(N1CCS(=O)(=O)CC1)P(=O)(O)O` (configuration not stated), the T/C is 90 % of control under setting [15], 99 % of control under setting [16] and 100 % of control under setting [17].

In the case of `O=C(O)C(O)(c1ccccc1)C1CCCC1` (configuration not stated), the T/C under setting [3] was 109 % of control and the T/C (dose: 400.0 mg/kg/injection, schedule: Q01DX009 (ip), vehicle: saline with Tween-80) was 107 % of control.
